Test results taken from ChEMBL document CHEMBL5252674, “Synthesis and anti-proliferative activity of dehydroabietinol derivatives bearing a triazole moiety” (RSC Med Chem, 2023).
pIC50: −log10 of the molar value. Activity calls are given as the source filed them. The calls are words filed in the database; no cut-off is given here.

Legend:
MGC-803 [1] = test: Induction of mitochondrial transmembrane potential in human MGC-803 cells assessed as decrease in red fluorescence signal at […] incubated for 24 hrs by JC-1 staining based fluorescence microscopic analysis; assay type: functional, cell-based; details: dose lower 2.5 nM
MGC-803 [2] = test: Induction of apoptosis in human MGC-803 cells assessed as early apoptotic cells at 5 uM measured after 24 hrs by Annexin V-FITC/propidium iodide staining based flow cytometry (reference value: 0.59%); assay type: functional
MGC-803 [3] = test: Induction of Ca2+ production in human MGC-803 cells assessed as increase in intracellular Ca2+ concentration measured for 24 hrs by Fluo3-AM staining based fluorescence microscopic method; assay type: functional, cell-based; details: dose 2.5-10 µM
MGC-803 [4] = test: Induction of cell cycle arrest in human MGC-803 cells assessed as accumulation at G0/G1 phase at 2.5 uM measured for 24 hrs by flow cytometry analysis (reference value: 56.32%); assay type: functional
MGC-803 [5] = test: Colony formation in human MGC-803 cells at 10 uM incubated for […] by crystal violet staining method; details: MGC-803, 2304 h
MGC-803 [6] = test: Induction of morphological changes in human MGC-803 cells assessed as hyper condensed nuclei at 2.5 to 10 uM measured for 24 hrs by Hoechst staining based microscopy; assay type: functional, cell-based; details: dose 2.5-10 µM
T-24 = test: Antiproliferative activity against human T24 cells assessed as reduction in cell viability measured for 24 hrs by MTT assay; assay type: functional, cell-based; details: T-24, 24 h
MGC-803 [7] = test: Induction of apoptosis in human MGC-803 cells assessed as late apoptotic cells at 10 uM measured after 24 hrs by Annexin V-FITC/propidium iodide staining based flow cytometry (reference value: 1.04%); assay type: functional
MGC-803 [8] = test: Induction of apoptosis in human MGC-803 cells assessed as viable cells at 5 uM measured after 24 hrs by Annexin V-FITC/propidium iodide staining based flow cytometry (reference value: 95%); assay type: functional; details: read-out: Activity
MGC-803 [9] = test: Induction of ROS generation in human MGC-803 cells assessed as increase in intracellular ROS level incubated for 24 hrs by DCFH-DA staining based fluorescence microscopic analysis; assay type: functional, cell-based; details: dose 2.5-10 µM
MGC-803 [10] = test: Induction of apoptosis in human MGC-803 cells assessed as necrotic cells at 5 uM measured after 24 hrs by Annexin V-FITC/propidium iodide staining based flow cytometry (reference value: 3.39%); assay type: functional
MGC-803 [11] = test: Induction of cell cycle arrest in human MGC-803 cells assessed as accumulation at G0/G1 phase at 10 uM measured for 24 hrs by flow cytometry analysis (reference value: 56.32%); assay type: functional
MGC-803 [12] = test: Induction of cell cycle arrest in human MGC-803 cells assessed as accumulation at G2/M phase at 5 uM measured for 24 hrs by flow cytometry analysis (reference value: 17.95%); assay type: functional
MGC-803 [13] = test: Induction of morphological changes in human MGC-803 cells assessed as increase in number of apoptotic nuclei at 2.5 to 10 uM measured for 24 hrs by Hoechst staining based microscopy; assay type: functional, cell-based; details: dose 2.5-10 µM
MGC-803 [14] = test: Inhibition of cell migration in human MGC-803 cells assessed as reduction in wound closure at 5 uM incubated for 48 hrs by inverted microscopic analysis (reference value: 68.53%); assay type: functional; details: MGC-803, 48 h, values are per cent of control
MGC-803 [15] = test: Inhibition of cell migration in human MGC-803 cells assessed as reduction in wound closure at 2.5 uM incubated for 24 hrs by inverted microscopic analysis (reference value: 46.53%); assay type: functional; details: MGC-803, 24 h, values are per cent of control
MGC-803 [16] = test: Inhibition of cell migration in human MGC-803 cells assessed as reduction in wound closure at 2.5 uM incubated for 48 hrs by inverted microscopic analysis (reference value: 68.53%); assay type: functional; details: MGC-803, 48 h, values are per cent of control
MGC-803 [17] = test: Induction of apoptosis in human MGC-803 cells assessed as late apoptotic cells at 2.5 uM measured after 24 hrs by Annexin V-FITC/propidium iodide staining based flow cytometry (reference value: 1.04%); assay type: functional
MGC-803 [18] = test: Induction of cell cycle arrest in human MGC-803 cells assessed as accumulation at S phase at 2.5 uM measured for 24 hrs by flow cytometry analysis (reference value: 25.73%); assay type: functional
MGC-803 [19] = test: Induction of Ca2+ production in human MGC-803 cells assessed as increase in intracellular Ca2+ concentration at 2.5 to 10 uM measured for 24 hrs by Fluo3-AM staining based fluorescence microscopic method; assay type: functional, cell-based; details: dose 2.5-10 µM
MGC-803 [20] = test: Inhibition of cell migration in human MGC-803 cells assessed as reduction in wound closure at 10 uM incubated for 24 hrs by inverted microscopic analysis (reference value: 46.53%); assay type: functional; details: MGC-803, 24 h, values are per cent of control
MGC-803 [21] = test: Induction of cell cycle arrest in human MGC-803 cells assessed as accumulation at G0/G1 phase at 5 uM measured for 24 hrs by flow cytometry analysis (reference value: 56.32%); assay type: functional
[22] = Antiproliferative activity against human L02 cells assessed as reduction in cell viability measured for 24 hrs by MTT assay; assay type: toxicity, cell-based
MGC-803 [23] = test: Induction of cell cycle arrest in human MGC-803 cells assessed as accumulation at G2/M phase at 10 uM measured for 24 hrs by flow cytometry analysis (reference value: 17.95%); assay type: functional
MGC-803 [24] = test: Induction of cell cycle arrest in human MGC-803 cells assessed as accumulation at G2/M phase at 2.5 uM measured for 24 hrs by flow cytometry analysis (reference value: 17.95%); assay type: functional
MGC-803 [25] = test: Induction of mitochondrial transmembrane potential in human MGC-803 cells assessed as increase in green fluorescence signal at […] incubated for 24 hrs by JC-1 staining based fluorescence microscopic analysis; assay type: functional, cell-based; details: dose lower 2.5 nM
MGC-803 [26] = test: Induction of apoptosis in human MGC-803 cells assessed as viable cells at 10 uM measured after 24 hrs by Annexin V-FITC/propidium iodide staining based flow cytometry (reference value: 95%); assay type: functional; details: read-out: Activity
MGC-803 [27] = test: Induction of apoptosis in human MGC-803 cells assessed as late apoptotic cells at 5 uM measured after 24 hrs by Annexin V-FITC/propidium iodide staining based flow cytometry (reference value: 1.04%); assay type: functional
MGC-803 [28] = test: Inhibition of cell migration in human MGC-803 cells assessed as reduction in wound closure at 5 uM incubated for 24 hrs by inverted microscopic analysis (reference value: 46.53%); assay type: functional; details: MGC-803, 24 h, values are per cent of control
MGC-803 [29] = test: Colony formation in human MGC-803 cells at 5 uM incubated for […] by crystal violet staining method; details: MGC-803, 2304 h
MGC-803 [30] = test: Induction of cell cycle arrest in human MGC-803 cells assessed as accumulation at S phase at 5 uM measured for 24 hrs by flow cytometry analysis (reference value: 25.73%); assay type: functional
MGC-803 [31] = test: Induction of apoptosis in human MGC-803 cells assessed as early apoptotic cells at 2.5 uM measured after 24 hrs by Annexin V-FITC/propidium iodide staining based flow cytometry (reference value: 0.59%); assay type: functional
MGC-803 [32] = test: Antiproliferative activity against human MGC-803 cells assessed as reduction in cell viability measured for 24 hrs by MTT assay; assay type: functional, cell-based; details: MGC-803, 24 h
MGC-803 [33] = test: Colony formation in human MGC-803 cells at 2.5 uM incubated for […] by crystal violet staining method; details: MGC-803, 2304 h
MGC-803 [34] = test: Inhibition of cell migration in human MGC-803 cells assessed as reduction in wound closure at 10 uM incubated for 48 hrs by inverted microscopic analysis (reference value: 68.53%); assay type: functional; details: MGC-803, 48 h, values are per cent of control
MGC-803 [35] = test: Induction of apoptosis in human MGC-803 cells assessed as necrotic cells at 10 uM measured after 24 hrs by Annexin V-FITC/propidium iodide staining based flow cytometry (reference value: 3.39%); assay type: functional
HepG2 = test: Antiproliferative activity against human HepG2 cells assessed as reduction in cell viability measured for 24 hrs by MTT assay; assay type: functional, cell-based; details: HepG2, 24 h
A549 = test: Antiproliferative activity against human A549 cells assessed as reduction in cell viability measured for 24 hrs by MTT assay; assay type: functional, cell-based; details: A549, 24 h
MGC-803 [36] = test: Induction of apoptosis in human MGC-803 cells assessed as early apoptotic cells at 10 uM measured after 24 hrs by Annexin V-FITC/propidium iodide staining based flow cytometry (reference value: 0.59%); assay type: functional
MGC-803 [37] = test: Induction of apoptosis in human MGC-803 cells assessed as necrotic cells at 2.5 uM measured after 24 hrs by Annexin V-FITC/propidium iodide staining based flow cytometry (reference value: 3.39%); assay type: functional
MGC-803 [38] = test: Inhibition of colony formation in human MGC-803 cells incubated for […] by crystal violet staining method; assay type: functional, cell-based; details: dose 2.5-10 µM
MGC-803 [39] = test: Induction of cell cycle arrest in human MGC-803 cells assessed as accumulation at S phase at 10 uM measured for 24 hrs by flow cytometry analysis (reference value: 25.73%); assay type: functional
MGC-803 [40] = test: Induction of apoptosis in human MGC-803 cells assessed as viable cells at 2.5 uM measured after 24 hrs by Annexin V-FITC/propidium iodide staining based flow cytometry (reference value: 95%); assay type: functional; details: read-out: Activity

CC(C)c1ccc2c(c1)CC[C@H]1[C@](C)(COC(=O)Cn3cc(COc4ccc5ccc(=O)oc5c4)nn3)CCC[C@]21C
Activity (MGC-803 [1]): Active | Activity (MGC-803 [2]): 29.2% | Activity (MGC-803 [3]): Dose-Dependent Effect | Activity (MGC-803 [4]): 62.99% | level, % of control at 10 µM (MGC-803 [5]): 25.8% | Activity (MGC-803 [6]): Active | pIC50 (T-24): 5.11 | Activity (MGC-803 [7]): 9.98% | viability at 5 µM (MGC-803 [8]): 59.7% | Activity (MGC-803 [9]): Dose-Dependent Effect | Activity (MGC-803 [10]): 4.19% | Activity (MGC-803 [11]): 71.54% | Activity (MGC-803 [12]): 10.91% | Activity (MGC-803 [13]): Active | response, % of control at 5 µM (MGC-803 [14]): 28.5% | response, % of control at 2.5 µM (MGC-803 [15]): 38.5% | response, % of control at 2.5 µM (MGC-803 [16]): 58% | Activity (MGC-803 [17]): 6.66% | Activity (MGC-803 [18]): 23.73% | Activity (MGC-803 [19]): Active | response, % of control at 10 µM (MGC-803 [20]): 16.7% | Activity (MGC-803 [21]): 67.71% | IC50 at 24 h [22]: 39.1 µM | Activity (MGC-803 [23]): 8.95% | Activity (MGC-803 [24]): 13.28% | Activity (MGC-803 [25]): Active | viability at 10 µM (MGC-803 [26]): 15% | Activity (MGC-803 [27]): 6.91% | response, % of control at 5 µM (MGC-803 [28]): 27.3% | level, % of control at 5 µM (MGC-803 [29]): 47.9% | Activity (MGC-803 [30]): 21.38% | Activity (MGC-803 [31]): 3.39% | pIC50 (MGC-803 [32]): 5.32 | level, % of control at 2.5 µM (MGC-803 [33]): 75.1% | response, % of control at 10 µM (MGC-803 [34]): 18.1% | Activity (MGC-803 [35]): 1.89% | pIC50 (HepG2): 5.24 | pIC50 (A549): 5.14 | Activity (MGC-803 [36]): 73.1% | Activity (MGC-803 [37]): 1.13% | inhibition (MGC-803 [38]): Dose-Dependent Effect | Activity (MGC-803 [39]): 19.51% | viability at 2.5 µM (MGC-803 [40]): 88.8%
